Data: patent US7001896B2, “Compositions for treating diabetes” (Otsuka Pharmaceutical Factory, Inc., priority 2000, dated 2006)

Test system: New Zealand white rabbits given high-fat, high-sugar feed
Assay: Pharmacological Test Example 1: serum glucose level in rabbits fed high-fat, high-sugar feed
Type: in vivo
Conditions: for serum glucose level (mean±S.D.): Group 2 (n = 6), high-fat, high-sugar feed containing 1% Compound A from week 4, fasted overnight, feed 35 g/kg/day
Description: In this test, New Zealand white rabbits each weighing about 2 kg were divided into three groups, i.e., Group 1 consisting of 5 rabbits, Group 2 consisting of 6 rabbits, and Group 3 consisting of 6 rabbits.
The Group 1 rabbits were fed on an ordinary feed (Standard laboratory chow for rabbits, product of Shanghai Shengwang Experimental Animal Ranch (P.R. China)) (Normal Group).
The Group 2 rabbits were given for 4 weeks a high-fat, high-sugar feed prepared by adding 10% lard and 37% sucrose to the above-described standard laboratory chow. After confirming increases in blood glucose level, these rabbits were fed a high-fat, high-sugar feed as described above but containing 1% of the active ingredient (Compound A) of the pharmaceutical composition of the invention for treating diabetes (Experimental Group).
The Group 3 rabbits were fed the high-fat, high-sugar feed prepared by adding 10% lard and 37% sucrose to the standard laboratory chow described above (Control Group).
The rabbits of each group were allowed to eat the respective feeds ad libitum. In all groups, the amount of feed given was 35 g/kg/day per rabbit. The test period (period of feeding) was 24 weeks.
At the beginning of the test (0 week) and 4 weeks, 8 weeks, 12 weeks, 16 weeks, 20 weeks and 24 weeks later, the rabbits of each group fasted overnight, and blood samples were then collected from the auricular artery and assayed to measure the serum glucose level (mg/dl) using a commercially available glucose determination kit for enzymatic assaying (Glucose determination kit (Glucose oxidase-peroxidase method), product of Shanghai Rongsheng Biotech Inc. (P.R China).

CCOP(=O)(Cc1ccc(C(=O)Nc2ccc(Br)cc2C#N)cc1)OCC [Compound A, 4-diethoxyphosphinoylmethyl-N-(4-bromo-2-cyanophenyl)benzamide]
serum glucose level (mean±S.D.) (8 weeks later): 124.7 ± 29.2 mg/dL
serum glucose level (mean±S.D.) (12 weeks later): 84.7 ± 19.5 mg/dL
serum glucose level (mean±S.D.) (16 weeks later): 85.3 ± 12.8 mg/dL
serum glucose level (mean±S.D.) (20 weeks later): 90.0 ± 15.7 mg/dL
serum glucose level (mean±S.D.) (24 weeks later): 73.6 ± 6.1 mg/dL
change in blood glucose level (in words) (Group 2 given high-fat, high-sugar feed containing Compound A from 4 weeks after the beginning of the test, 24-week test, versus Control Group 3 with continuous increase): significant decrease in blood glucose level over time
